These results are taken from patent publication US12428430B2 (BRISTOL-MYERS SQUIBB COMPANY, priority 2018, dated 2025).

In this assay the target is hLPA1 (Homo sapiens, UniProt Q92633). Description: LPA1 functional antagonist assay (LPA-induced calcium flux in CHO cells overexpressing human LPA1). Also on record: expressed in transfected cells; host or cells: Chinese hamster ovary (CHO) cells. The settings on record: antagonist mode, inhibition of calcium flux induced by 10 nM LPA, read-out: hLPA1 IC50. Format: cell-based. How it is done: The effectiveness of compounds of the present invention as LPA1 inhibitors can be determined in an LPA1 functional antagonist assay as follows:
Chinese hamster ovary cells overexpressing human LPA1 were plated overnight (15,000 cells/well) in poly-D-lysine coated 384-well microplates (Greiner bio-one, Cat #781946) in DMEM/F12 medium (Gibco, Cat #11039). Following overnight culture, cells were loaded with calcium indicator dye (AAT Bioquest Inc, Cat #34601) for 30 minutes at 37° C. The cells were then equilibrated to room temperature for 30 minutes before the assay. Test compounds solubilized in DMSO were transferred to 384 well non-binding surface plates (Corning, Cat #3575) using the Labcyte Echo acoustic dispense and diluted with assay buffer [1×HBSS with calcium/magnesium (Gibco Cat #14025-092), 20 mM HEPES (Gibco Cat #15630-080) and 0.1% fatty acid free BSA (Sigma Cat #A9205)] to a final concentration of 0.5% DMSO. Diluted compounds were added to the cells by FDSS6000 (Hamamatsu) at final concentrations ranging from 0.08 nM to 5 μM. and were then incubated for 20 min at room temperature at which time LPA (Avanti Polar Lipids Cat #857130C) was added at final concentrations of 10 nM to stimulate the cells. The compound IC50 value was defined as the concentration of test compound which inhibited 50% of the calcium flux induced by LPA alone. IC50 values were determined by fitting data to a 4-parameter logistic equation (GraphPad Prism, San Diego Calif.).
(Calcium flux is commonly read through the fluorescence of an indicator in the cells.)

Sequence of hLPA1 (Q92633 whole entry): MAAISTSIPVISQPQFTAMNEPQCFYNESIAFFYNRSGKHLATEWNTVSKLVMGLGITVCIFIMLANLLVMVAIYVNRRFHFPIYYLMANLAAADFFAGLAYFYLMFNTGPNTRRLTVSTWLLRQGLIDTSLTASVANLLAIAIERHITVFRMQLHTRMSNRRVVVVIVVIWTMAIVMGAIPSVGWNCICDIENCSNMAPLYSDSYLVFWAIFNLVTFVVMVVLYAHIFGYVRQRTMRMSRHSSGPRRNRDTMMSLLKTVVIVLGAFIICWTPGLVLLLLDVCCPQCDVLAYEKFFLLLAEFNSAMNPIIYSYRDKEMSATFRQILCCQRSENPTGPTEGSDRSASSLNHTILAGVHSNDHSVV

For the compound “2-(4-(4-(4 2-(4-(4-(4-((((cyclobutyl-methyl)carbamoyl)oxy)methyl)-3-methylisoxazol-5-yl)phenyl)-2-oxabicyclo[2.2.2]octan-1-yl)acetic acid [Example 35]”, the IC50 worked out at 655 nM.

Turning to “2-(4-(4-(4-((((cyclobutylmethyl)(methyl)carbamoyl)oxy)methyl)-3-methylisoxazol-5-yl)phenyl)-2-oxabicyclo[2.2.2]octan-1-yl)acetic acid [Example 34]”, the IC50 is 158 nM.

For `CC(C1CCC1)N(C)C(=O)OCc1c(-c2ccc(C34CCC(CCC(=O)O)(CC3)OC4)cc2)nnn1C` (racemic) [Example 5, (±)-3-(4-(4-(5-((((1-Cyclobutylethyl)(methyl)carbamoyl)oxy)methyl)-1-methyl-1H-1,2,3-triazol-4-yl)phenyl)-2-oxabicyclo[2.2.2]octan-1-yl)propanoic acid], the IC50 was found to be 440 nM.

Regarding `Cc1noc(-c2ccc(C34CCC(CC(=O)O)(CC3)OC4)cc2)c1NC(=O)OC(C)c1ccc(Cl)cc1` (racemic) [Example 14], the IC50 amounted to 117 nM.

As to `Cc1noc(-c2ccc(C34CCC(CC(=O)O)(CC3)OC4)cc2)c1NC(=O)OC(C)c1cccc(Cl)c1` (racemic) [Example 15, (±)-2-(4-(4-(4-(((1-(3-chlorophenyl)ethoxy)carbonyl)amino)-3-methyl-isoxazol-5-yl)phenyl)-2-oxabicyclo[2.2.2]octan-1-yl)acetic acid], the IC50 worked out at 379 nM.

As for `Cc1noc(-c2ccc(C34CCC(CC(=O)O)(CC3)OC4)c(F)c2)c1NC(=O)OC(C)c1cccc(Cl)c1` (racemic) [Example 19, (±)-2-(4-(4-(4-(((1-(3-chlorophenyl)ethoxy)carbonyl)amino)-3-methyl-isoxazol-5-yl)-2-fluorophenyl)-2-oxabicyclo[2.2.2]octan-1-yl)acetic acid], the IC50 is 692 nM.

For `Cc1noc(-c2ccc(C34CCC(CC(=O)O)(CC3)OC4)cc2F)c1NC(=O)OC(C)c1ccc(Cl)cc1` (racemic) [Example 24, (±)-2-(4-(4-(4-(((1-(4-chlorophenyl)ethoxy)carbonyl)amino)-3-methyl-isoxazol-5-yl)-3-fluorophenyl)-2-oxabicyclo[2.2.2]octan-1-yl)acetic acid], the IC50 turned out to be 406 nM.

Regarding `Cc1noc(-c2ccc(C34CCC(CC(=O)O)(CC3)OC4)cc2F)c1NC(=O)OC(C)c1cccc(Cl)c1` (racemic) [Example 25, (±)-2-(4-(4-(4-(((1-(3-chlorophenyl)ethoxy)carbonyl)amino)-3-methyl-isoxazol-5-yl)-3-fluorophenyl)-2-oxabicyclo[2.2.2]octan-1-yl)acetic acid], the IC50 stood at 345 nM.

As to `Cc1cc(C23CCC(CC(=O)O)(CC2)OC3)ccc1-c1onc(C)c1NC(=O)O[C@H](C)c1ccccc1C` (racemic) [Example 26, (±)-2-(4-(3-methyl-4-(3-methyl-4-((((R)-1-(o-tolyl)ethoxy)carbonyl)amino)isoxazol-5-yl)phenyl)-2-oxabicyclo[2.2.2]octan-1-yl)acetic acid], the IC50 was determined as 92 nM.

Consider `CC(OC(=O)Nc1c(-c2ccc(C34CCC(CC(=O)O)(CC3)OC4)c(F)c2)cnn1C)c1ccc(Cl)cc1` (racemic) [Example 29, (±)-2-(4-(4-(5-(((1-(4-chlorophenyl)ethoxy)carbonyl)amino)-1-methyl-1H-pyrazol-4-yl)-2-fluorophenyl)-2-oxabicyclo[2.2.2]octan-1-yl)acetic acid], for which the IC50 stood at 1140 nM.

As to `CC(C1CC1)N(C)C(=O)OCc1c(-c2ccc(C34CCC(CC(=O)O)(CC3)OC4)cc2)cnn1C` (racemic) [Example 36, (rac)-2-(4-(4-(5-((((1-cyclopropyl-ethyl)(methyl)carbamoyl)oxy)methyl)-1-methyl-1-pyrazol-4-yl)phenyl)-2-oxabicyclo[2.2.2]octan-1-yl)acetic acid], the IC50 stood at 1890 nM.

On to `CC(C1CCC1)N(C)C(=O)OCc1c(-c2ccc(C34CCC(CC(=O)O)(CC3)OC4)cc2)cnn1C` (racemic) [Example 37, (rac)-2-(4-(4-(5-((((1-cyclobutyl-ethyl)(methyl)carbamoyl)oxy)methyl)-1-methyl-1H-pyrazol-4-yl)phenyl)-2-oxabicyclo[2.2.2]octan-1-yl)acetic acid], for which the IC50 was 166 nM.

For the compound `Cc1noc(-c2ccc(C34CCC(CC(=O)O)(CC3)OC4)cc2)c1NC(=O)O[C@H](C)c1ccccc1` [Example 1, 2-(4-(4-(3-methyl-4-((((R)-1-phenylethoxy)carbonyl)amino)isoxazol-5-yl)phenyl)-2-oxabicyclo [2.2.2]octan-1-yl)acetic acid], the IC50 stood at 116 nM.

In the case of `C[C@@H](OC(=O)Nc1c(-c2ccc(C34CCC(CC(=O)O)(CC3)OC4)cc2)cnn1C)c1ccccc1` [Example 2, 2-(4-(4-(1-methyl-5-((((R)-1-phenylethoxy)carbonyl)amino)-1H-pyrazol-4-yl)phenyl)-2-oxabicyclo[2.2.2]octan-1-yl)acetic acid], the IC50 came out at 88 nM.

Consider `Cc1noc(-c2ccc(C34CCC(CC(=O)O)(CC3)OC4)cc2)c1COC(=O)N(C)C1CCCC1` [Example 3, 2-(4-(4-(4-(((cyclopentyl(methyl)carbamoyl)oxy)methyl)-3-methylisoxazol-5-yl)phenyl)-2-oxabicyclo[2.2.2]octan-1-yl)acetic acid], for which the IC50 is 317 nM.

Regarding `CN(C(=O)OCc1c(-c2ccc(C34CCC(CC(=O)O)(CC3)OC4)cc2)cnn1C)C1CCCC1` [Example 4, 2-(4-(4-(5-(((cyclopentyl(methyl)carbamoyl)oxy)methyl)-1-methyl-1H-pyrazol-4-yl)phenyl)-2-oxabicyclo[2.2.2]octan-1-yl)acetic acid], the IC50 came to 1610 nM.

In the case of `CN(C(=O)OCc1c(-c2ccc(C34CCC(CC(=O)O)(CC3)OC4)c(F)c2)nnn1C)C1CCCC1` [Example 6, 2-(4-(4-(5-(((Cyclopentyl(methyl)carbamoyl)oxy)methyl)-1-methyl-1H-1,2,3-triazol-4-yl)-2-fluorophenyl)-2-oxabicyclo[2.2.2]octan-1-yl)acetic acid], the IC50 amounted to 363 nM.

As to `C[C@@H](OC(=O)Nc1c(-c2ccc(C34CCC(CCC(=O)O)(CC3)OC4)cc2)nnn1C)c1ccccc1` [Example 7, 3-(4-(4-(1-methyl-5-((((R)-1-phenylethoxy)carbonyl)amino)-1H-1,2,3-triazol-4-yl)phenyl)-2-oxabicyclo[2.2.2]octan-1-yl)propanoic acid], the IC50 was found to be 264 nM.

Turning to `C[C@@H](OC(=O)Nc1c(-c2ccc(C34CCC(CCC(=O)O)(CC3)OC4)cc2)nnn1C)c1ccccc1Cl` [Example 8, 3-(4-(4-(5-((((R)-1-(2-chlorophenyl)ethoxy)carbonyl)amino)-1-methyl-1H-1,2,3-triazol-4-yl)phenyl)-2-oxabicyclo[2.2.2]octan-1-yl)propanoic acid], the IC50 turned out to be 418 nM.

As to `C[C@@H](OC(=O)Nc1c(-c2ccc(C34CCC(C(=O)O)(CC3)OC4)cc2)cnn1C)c1ccccc1` [Example 9, (R)-4-(4-(1-methyl-5-(((1-phenylethoxy)carbonyl)amino)-1H-pyrazol-4-yl)phenyl)-2-oxabicyclo[2.2.2]octane-1-carboxylic acid], the IC50 was 278 nM.

With `C[C@@H](OC(=O)Nc1c(-c2ccc(C34CCC(CC(=O)O)(CC3)OC4)cc2)cnn1CC1CC1)c1ccccc1` [Example 10, (R)-2-(4-(4-(1-(cyclopropylmethyl)-5-(((1-phenylethoxy)carbonyl)amino)-1H-pyrazol-4-yl)phenyl)-2-oxabicyclo[2.2.2]octan-1-yl)acetic acid], the IC50 was determined as 422 nM.

As for `Cc1noc(-c2ccc(C34CCC(CC(=O)O)(CC3)OC4)cc2)c1NC(=O)O[C@H](C)C1CC1` [Example 11, 2-(4-(4-(4-((((R)-1-cyclopropyl-ethoxy)carbonyl)amino)-3-methylisoxazol-5-yl)phenyl)-2-oxabicyclo[2.2.2]octan-1-yl)acetic acid], the IC50 turned out to be 194 nM.

On to `Cc1noc(-c2ccc(C34CCC(CC(=O)O)(CC3)OC4)cc2)c1NC(=O)O[C@H](C)c1ccccc1Cl` [Example 12, 2-(4-(4-(4-((((R)-1-(2-chlorophenyl)ethoxy)carbonyl)amino)-3-methylisoxazol-5-yl)phenyl)-2-oxabicyclo[2.2.2]octan-1-yl)acetic acid], for which the IC50 was determined as 72 nM.

Consider `Cc1ccccc1[C@@H](C)OC(=O)Nc1c(C)noc1-c1ccc(C23CCC(CC(=O)O)(CC2)OC3)cc1` [Example 13, 2-(4-(4-(3-methyl-4-((((R)-1-(o-tolyl)ethoxy)carbonyl)amino)isoxazol-5-yl)phenyl)-2-oxabicyclo[2.2.2]octan-1-yl)acetic acid], for which the IC50 turned out to be 184 nM.

Take `Cc1noc(-c2ccc(C34CCC(CC(=O)O)(CC3)OC4)c(F)c2)c1NC(=O)O[C@H](C)C1CC1` [Example 16, 2-(4-(4-(4-((((R)-1-cyclopropylethoxy)carbonyl)amino)-3-methylisoxazol-5-yl)-2-fluorophenyl)-2-oxabicyclo[2.2.2]octan-1-yl)acetic acid]: the IC50 was found to be 407 nM.

For orientation: IC50 means the point on the concentration scale where inhibition reaches its midpoint.
